Assay [1] has as its target T1, vanilloid receptor 1 (VR1/TRPV1 receptor) (Homo sapiens, UniProt Q8NER1).
T1 construct: expressed in transfected cells; host or cells: CHO K1 cells (ECACC), stably transfected
Briefly: VR1/TRPV1 receptor affinity, NADA stimulus (human). The assay is classed as cell-based. Particulars: N-arachidonoyl dopamine; read-out: Ki (human being) [nM] NADA.

The target in assay [2] is T1, vanilloid receptor 1 (VR1/TRPV1 receptor). As to the kind of experiment: VR1 inhibition, 45° C. heat stimulus (human). It counts as cell-based, human being. Also on record: key to IC50 (human being) [nM], 45° C.: result in words: AG=agonist; pAG=partial agonist; NE=no effect.
Assay [3] shares this target. Briefly: VR1/TRPV1 receptor affinity, capsaicin stimulus (human). It counts as cell-based, human being. On the set-up: key to (f) Ki (human being) [nM] Cap: result in words: AG=agonist; pAG=partial agonist; NE=no effect. The note with it: for inhibition at 5 µM: Tables 8-12, read-out: (f) Ki (human being) [nM] Cap: inhibition (as a percentage); for Ki: Tables 8-12, read-out: (f) Ki (human being) [nM] Cap.

One may read the Ki as a measure of affinity in units of concentration, obtained from inhibition or displacement. Usually IC50 stands for the concentration needed to halve the response being measured. One may read the inhibition as the relative decrease from the control value, in per cent.

T1 sequence (Q8NER1 whole entry): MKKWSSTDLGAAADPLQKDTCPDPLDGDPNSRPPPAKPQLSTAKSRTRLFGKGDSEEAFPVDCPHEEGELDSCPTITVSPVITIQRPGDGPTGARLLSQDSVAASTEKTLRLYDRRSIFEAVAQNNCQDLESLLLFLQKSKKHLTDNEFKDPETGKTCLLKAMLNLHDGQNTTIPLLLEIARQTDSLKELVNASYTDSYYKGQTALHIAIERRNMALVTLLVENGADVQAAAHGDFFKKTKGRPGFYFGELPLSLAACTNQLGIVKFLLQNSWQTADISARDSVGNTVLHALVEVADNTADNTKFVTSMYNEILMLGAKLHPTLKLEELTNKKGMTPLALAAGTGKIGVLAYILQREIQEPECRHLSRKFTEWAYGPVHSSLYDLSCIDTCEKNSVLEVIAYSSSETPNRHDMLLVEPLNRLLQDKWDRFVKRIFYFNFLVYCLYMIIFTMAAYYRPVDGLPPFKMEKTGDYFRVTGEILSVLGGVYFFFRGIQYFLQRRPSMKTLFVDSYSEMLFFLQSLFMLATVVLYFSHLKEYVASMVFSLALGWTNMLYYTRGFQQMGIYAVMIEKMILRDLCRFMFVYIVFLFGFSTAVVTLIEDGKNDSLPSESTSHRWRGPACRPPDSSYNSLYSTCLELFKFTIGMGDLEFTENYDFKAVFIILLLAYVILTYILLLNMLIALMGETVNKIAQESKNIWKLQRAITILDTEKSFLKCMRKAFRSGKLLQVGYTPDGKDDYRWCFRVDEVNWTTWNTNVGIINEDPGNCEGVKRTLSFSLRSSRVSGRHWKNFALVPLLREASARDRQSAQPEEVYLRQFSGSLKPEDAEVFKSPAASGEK

For `CC(C(=O)NCc1cc(C(C)(C)C)nn1-c1ccc(F)c(Cl)c1)c1ccc(NS(C)(=O)=O)c(F)c1` (centres unmarked) [Example 18, N-((3-tert-butyl-1-(3-chloro-4-fluorophenyl)-1H-pyrazol-5-yl)methyl)-2-(3-fluoro-4-(methylsulfonamido)phenyl)propanamide], in assay [1], the inhibitory constant (Ki) is 0.22 nM.

Turning to `Cc1c(C(F)(F)F)nn(-c2cccc(Cl)c2)c1CNC(=O)C(C)c1ccc(CNS(C)(=O)=O)c(F)c1` (centres unmarked) [Example 134, N-((1-(3-chlorophenyl)-4-methyl-3-(trifluoromethyl)-1H-pyrazol-5-yl)methyl)-2-(3-fluoro-4-(methylsulfonamid-methyl)phenyl)propanamide], the concentration for half-maximal inhibition (IC50) in assay [2] (read-out: IC50 (human being) [nM], 45° C.) was determined as 546 nM. Turning to `CC(C(=O)NCc1cc(C(C)(C)C)nn1-c1cccc(Cl)c1)c1ccc(S(=O)(=O)N(C)C)c(F)c1` (centres unmarked) [Example 56, N-((3-tert-butyl-1-(3-chlorophenyl)-1H-pyrazol-5-yl)methyl)-2-(4-(N,N-dimethylsulfamoyl)-3-fluorophenyl)propanamide], the “IC50 (human being) [nM], 45° C.: result in words” value in assay [2] is given as “AG”. Take `CC(C(=O)NCc1cc(C(C)(C)C)nn1-c1cccc(Cl)c1)c1cc(F)c(NS(C)(=O)=O)c(F)c1` (centres unmarked) [Example 29, N-((3-tert-butyl-1-(3-chlorophenyl)-1H-pyrazol-5-yl)methyl)-2-(3,5-difluoro-4-(methylsulfonamido)phenyl)propanamide]: in assay [1], the Ki came to 0.08 nM. For the molecule `CC(C(=O)NCc1cc(C(C)(C)C)nn1-c1ccc(F)c(F)c1)c1ccc(CO)c(F)c1` (centres unmarked) [Example A39, N-[[5-tert-Butyl-2-(3,4-difluoro-phenyl)-2H-pyrazol-3-yl]-methyl]-2-[3-fluoro-4-(hydroxymethyl)-phenyl]-propionamide], in assay [3] (Tables 8-12), the “(f) Ki (human being) [nM] Cap: result in words” value (from here on “(f) Ki (human being) … in words”) is listed as “AG”. In the case of `O=C(NCc1cc(C(F)(F)F)nn1-c1cccc(F)c1)Nc1ccc(N2CC(O)C2)c(F)c1` [Example C9, 1-[3-Fluoro-4-(3-hydroxy-azetidin-1-yl)-phenyl]-3-[[2-(3-fluorophenyl)-5-(trifluoromethyl)-2H-pyrazol-3-yl]-methyl]-urea], the inhibition at 5 µM in assay [3] (@ 5 μM) turned out to be 50%. As for `CCCCCCn1nc(C(C)(C)C)cc1CNC(=O)C(C)c1ccc(NS(C)(=O)=O)c(F)c1` (centres unmarked) [Example 5, N-((3-tert-butyl-1-hexyl-1H-pyrazol-5-yl)methyl)-2-(3-fluoro-4-(methylsulfonamido)phenyl)propanamide], the Ki in assay [1] is 4.99 nM.

Consider `CC(C(=O)NCc1cc(C(F)(F)F)nn1-c1cccc(Cl)c1)c1ccc(C(=O)Nc2ccc(F)cc2)c(F)c1` (centres unmarked) [Example E45, 4-[1-[[2-(3-Chlorophenyl)-5-(trifluoromethyl)-2H-pyrazol-3-yl]-methyl-carbamoyl]-ethyl]-2-fluoro-N-(4-fluorophenyl)-benzamide], for which the Ki in assay [3] is 0.3 nM. In the case of `CC(C)(C)c1cc(CNC(=O)Nc2cc(F)c(O)c(F)c2)n(-c2cccc(Cl)c2)n1` [Example A11, 1-[[5-tert-Butyl-2-(3-chlorophenyl)-2H-pyrazol-3-yl]-methyl]-3-(3,5-difluoro-4-hydroxy-phenyl)-urea], the “(f) Ki (human being) … in words” value in assay [3] (Tables 8-12) is listed as “AG”. `Cc1cccc(-n2nc(C(F)(F)F)cc2CNC(=O)C(C)c2ccc(CNS(C)(=O)=O)c(F)c2)c1` (centres unmarked) [Example B68, 2-[3-Fluoro-4-(methanesulfonamido-methyl)-phenyl]-N-[[2-(m-tolyl)-5-(trifluoromethyl)-2H-pyrazol-3-yl]-methyl]-propionamide]: the inhibition constant (Ki) in assay [3] was 4 nM. In the case of `CC(C(=O)NCc1cc(C(C)(C)C)nn1-c1cccc(Cl)c1)c1ccc(C(O)CO)c(F)c1` (centres unmarked) [Example A145, N-[[5-tert-Butyl-2-(3-chlorophenyl)-2H-pyrazol-3-yl]-methyl]-2-[4-(1,2-dihydroxy-ethyl)-3-fluoro-phenyl]-propionamide], the “(f) Ki (human being) … in words” value in assay [3] (Tables 8-12) was “AG”. Consider `COc1cc(NC(=O)N(C)c2cc(C(C)(C)C)nn2-c2cccc(Cl)c2)ccc1C(=O)O` [Example E56, 4-[[[5-tert-Butyl-2-(3-chlorophenyl)-2H-pyrazol-3-yl]-methyl-carbamoyl]amino]-2-methoxy-benzoic acid], for which the inhibition at 5 µM in assay [3] (@ 5 μM) came to 52%.

Turning to `CC(C(=O)NCc1cc(C(C)(C)C)nn1-c1ccc(F)c(Cl)c1)c1ccc(N2CCCS2(=O)=O)c(F)c1` (centres unmarked) [Example C2, N-[[5-tert-Butyl-2-(3-chloro-4-fluoro-phenyl)-2H-pyrazol-3-yl]-methyl]-2-[4-(1,1-dioxo-[1,2]thiazolidin-2-yl)-3-fluoro-phenyl]-propionamid], in assay [3], the Ki is 50 nM. The same measure, in the same setting: the result for `CCS(=O)(=O)NCc1ccc(C(C)C(=O)NCc2cc(C(F)(F)F)nn2-c2cccc(Cl)c2)cc1F` (centres unmarked) [Example B17, N-[[2-(3-Chlorophenyl)-5-(trifluoromethyl)-2H-pyrazol-3-yl]-methyl]-2-[4-[[(ethylsulfonyl)amino]-methyl]-3-fluoro-phenyl]-propionamide] reads 3 nM. Regarding “1-[[5-tert-Butyl-2-(3-fluorophenyl)-2H-pyrazol-3-yl]-methyl]-3-[3-fluoro-4-(3-hydroxy-azetidin-1-yl)-phenyl]-urea [Example C8]”, the “(f) Ki (human being) [nM] Cap: inhibition (as a percentage)” value in assay [3] (@ 5 μM, Tables 8-12) was determined as 53% @ 5 μM. Take `CC(C(=O)NCc1cc(C(C)(C)C)nn1-c1cccc(Cl)c1)c1ccc(C(=O)N2CCOCC2)c(F)c1` (centres unmarked) [Example E17, N-[[5-tert-Butyl-2-(3-chlorophenyl)-2H-pyrazol-3-yl]-methyl]-2-[3-fluoro-4-(morpholine-4-carbonyl)-phenyl]-propionamide]: the inhibition at 5 µM in assay [3] (@ 5 μM) was found to be 42%.

Regarding `COc1cc(C(C)C(=O)NCc2cc(C(C)(C)C)nn2-c2cccc(Cl)c2)ccc1CNS(C)(=O)=O` (centres unmarked) [Example B98, N-[[5-tert-Butyl-2-(3-chlorophenyl)-2H-pyrazol-3-yl]-methyl]-2-[4-(methanesulfonamido-methyl)-3-methoxy-phenyl]-propionamide], the Ki in assay [3] is 3 nM. Still for that read-out and setting: with `CC(C)(C)c1cc(CNC(=O)Nc2ccc(CNS(N)(=O)=O)c(F)c2)n(-c2ccc(F)c(F)c2)n1` [Example B69, 1-[[5-tert-Butyl-2-(3,4-difluoro-phenyl)-2H-pyrazol-3-yl]-methyl]-3-[3-fluoro-4-[(sulfamoylamino)-methyl]-phenyl]-urea] the figure was 30 nM. On to `CC(C(=O)NCc1cc(C(F)(F)F)nn1-c1cccc(F)c1)c1ccc(CS(C)(=O)=O)c(F)c1` (centres unmarked) [Example D10, 2-[3-Fluoro-4-(methylsulfonyl-methyl)-phenyl]-N-[[2-(3-fluorophenyl)-5-(trifluoromethyl)-2H-pyrazol-3-yl]-methyl]-propionamide], for which, in assay [3], the Ki was determined as 75 nM. Regarding `NS(=O)(=O)NCc1ccc(NC(=O)NCc2cc(C(F)(F)F)nn2-c2cccc(Cl)c2)cc1F` [Example B41, 1-[[2-(3-Chlorophenyl)-5-(trifluoromethyl)-2H-pyrazol-3-yl]methyl]-3-[3-fluoro-4-[(sulfamoylamino)-methyl]-phenyl]-urea], in assay [3], the Ki is 74 nM. On to `CC(C)c1cccc(-n2nc(C(F)(F)F)cc2CNC(=O)Nc2ccc(CNS(C)(=O)=O)cc2)c1` [Example B83, 1-[[2-(3-isopropyl-phenyl)-5-(trifluoromethyl)-2H-pyrazol-3-yl]-methyl]-3-[4-(methanesulfonamido-methyl)-phenyl]-urea], for which the inhibition constant Ki in assay [3] was 3 nM.

Regarding `O=C(NCc1cc(C(F)(F)F)nn1-c1cccc(Cl)c1)Nc1ccc(CN2CCCCC2)c(F)c1` [Example B100, 1-[[2-(3-Chlorophenyl)-5-(trifluoromethyl)-2H-pyrazol-3-yl]-methyl]-3-[3-fluoro-4-(piperidin-1-yl-methyl)-phenyl]-urea], the inhibition at 5 µM in assay [3] (@ 5 μM) turned out to be 17%. For `CS(=O)(=O)NCc1ccc(CC(=O)NCc2cc(C(F)(F)F)nn2-c2cccc(Cl)c2)cc1F` [Example B23, N-[[2-(3-Chlorophenyl)-5-(trifluoromethyl)-2H-pyrazol-3-yl]-methyl]-2-[3-fluoro-4-(methanesulfonamido-methyl)-phenyl]-acetamide], in assay [3], the inhibitory constant (Ki) was 13 nM. For `CC(C(=O)NCc1cc(C(C)(C)C)nn1-c1cccc(F)c1)c1ccc(CO)c(F)c1` (centres unmarked) [Example A37, N-[[5-tert-Butyl-2-(3-fluorophenyl)-2H-pyrazol-3-yl]-methyl]-2-[3-fluoro-4-(hydroxymethyl)-phenyl]-propionamide], the “(f) Ki (human being) … in words” value in assay [3] (Tables 8-12) is on record as “AG”. For the molecule “N-[[2-(3-Chlorophenyl)-5-cyclopropyl-2H-pyrazol-3-yl]-methyl]-2-[3-fluoro-4-(methanesulfonamido-methyl)-phenyl]-propionamide [Example B4]”, the inhibitory constant (Ki) in assay [3] was found to be 61 nM. Take `COc1ccc(NC(=O)NCc2cc(C(C)(C)C)nn2-c2cccc(Cl)c2)cc1OC` [Example A13, 1-[[5-tert-Butyl-2-(3-chlorophenyl)-2H-pyrazol-3-yl]-methyl]-3-(3,4-dimethoxyphenyl)-urea]: in assay [3] (Tables 8-12), the “(f) Ki (human being) … in words” value is “AG”.
